System: rats
Assay: Conditioned Place Preference (CPP) animal model of opioid-induced euphoria
Settings: subcutaneous, 6 conditioning days of 30 min sessions, preference assessed on day 8, time in drug-paired minus vehicle-paired chamber
Experimental: It was administered in a volume of 2 ml/kg. […] The oxycodone was administered as the hydrochloride salt form and was dissolved in saline. The subcutaneous volume for each was 2 ml/kg.
For this Example, a 6 day unbiased, counterbalanced paradigm was employed. Innate preference was tested on day 1 (preconditioning day or baseline). On this day, naïve animals (rats) had free access to all three compartments for 30 minutes. The time spent in each chamber was automatically recorded. For conditioning sessions (days 2-7), animals were randomly assigned to compartment pairings for thirty minutes. During the first conditioning session (day 2), animals were randomly divided. […] Control animals received vehicle plus vehicle during each pairing. This conditioning procedure was replicated over five more days (thirty minute sessions for 6 total conditioning days). On day 8, preference was assessed. Each animal was allowed to roam freely about all three compartments for 30 minutes. The removable doors remained opened. The time spent in each compartment was automatically recorded. Conditioned Place Preference (“CPP”) (seconds) is represented as the difference between the time spent in the drug-paired and vehicle-paired chambers on the test day and is indicative of the rewarding properties associated with the compound(s) studied.

COc1ccc2c3c1O[C@H]1C(=O)CC[C@@]4(O)[C@@H](C2)N(C)CC[C@]314 [oxycodone]
Conditioned Place Preference (CPP) as compared to vehicle treated controls: produces a statistically significant CPP
